The text below walks through data of US7485655B2, “2-Aminothiazole allosteric enhancers of A1 adenosine receptors” (University of Virginia Patent Foundation, priority 2002, dated 2009).

Assay [1] relates to chicken chorioallantoic membrane (CAM). The experiment in a line: CAM assay, drug applied daily on filter paper disc. Conditions: for angiogenic response in the CAM (vessel density at edge of disk): 100 nM doses, 100 μl daily for 7 days on filter paper disk. It counts as in vivo.
The test system of another assay is rat mesentery. Nature of the assay: Rat mesentery angiogenesis, chronic intraperitoneal infusion by Alzet osmotic pump. The format is in vivo. The note with it: chronic infusion via Alzet pumps into the peritoneal cavity of a rat. The protocol: Drug application into rat mesentery using infusion pumps. Alzet osmotic pumps were filled with drug or vehicle to a volume of 200 μl. The abdominal cavities of anesthetized 150 g Sprague-Dawley rats were incised and pumps implanted into the intraperitoneal cavity. The pumps delivered the drug at 1.0 μl/hr. After one week mesenteric samples were taken between vascular arcades along the length of the small bowel. Specimens were fixed and stained using a BS:lectin stain.
The chronic infusion was an advantage because the model is not an ischemic one, so steady long term administration of the PD 81,723 may help to augment the effects of lower concentrations of endogenous adenosine.

The next assay addresses T1, human A3 receptor (Homo sapiens, UniProt P0DMS8).
T1 sequence (P0DMS8 1-318): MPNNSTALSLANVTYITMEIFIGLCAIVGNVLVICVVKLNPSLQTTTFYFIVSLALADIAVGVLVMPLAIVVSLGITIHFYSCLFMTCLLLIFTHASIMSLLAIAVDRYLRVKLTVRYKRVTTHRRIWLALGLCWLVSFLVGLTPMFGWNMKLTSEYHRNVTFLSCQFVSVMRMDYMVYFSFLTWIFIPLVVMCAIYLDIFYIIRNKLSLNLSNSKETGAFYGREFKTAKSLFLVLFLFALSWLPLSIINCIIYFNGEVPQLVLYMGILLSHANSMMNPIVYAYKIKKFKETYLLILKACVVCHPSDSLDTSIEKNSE
The note with it: cited from earlier work.

Assay [2] has as its system chicken chorioallantoic membrane (CAM). Nature of the assay: CAM assay, adenosine applied via Elvax pellets. Conditions: Elvax pellet with 3 mg adenosine, left in place seven days. The format is in vivo. The protocol:
Fertile White Leghorn chicken eggs were obtained from Truslow Farms (Chesterfield, Mo.). Eggs were incubated at 37° for 7 days, then a 1.5 cm window was cut into each egg over the CAM. Pellets were applied to the CAMS and the windows closed with cellophane tape. Eggs were incubated until day 14 when the CAMS were fixed. […] The pellets were placed on the CAM where there were a few vessels present and were left in place for seven days. The CAMS then were fixed in 10% buffered formalin and vessels were counted under 20× magnification using a Nikon stereomicroscope. The quantitation of vascular number is presented as vascular density index VDI that was an adaptation of a method described by Harris-Hooker (Harris-Hooker et al., Neovascular Responses Induced by Cultured Aortic Endothelial Cells, J Cell. Phys., 114, 302-310, 1983). A plastic cover slip inscribed with 4, 5, 6, and 8 mm diameter concentric circles was centered over the adenosine pellet on the formalin-fixed CAM. The vascular density was judged by counting the numbers of the vessels which intersected the circles. This technique allowed counting of vessels down to 10-12 u in diameter. The positioning of the pellets on the CAM was randomized. […] Adenosine was delivered by other means as well.

Some results are limits rather than exact numbers.

As to `Cc1sc(N)c(C(=O)c2cccc(C(F)(F)F)c2)c1C` [PD 81,723], the “stimulation of angiogenesis in the CAM” value in assay [1] (100 μM on filter paper disc, versus vehicle, no applied agonist) is on record as 10%. Moreover, the “angiogenesis in mature mammalian animal model” value with rat mesentery is on record as “Stimulation of angiogenesis”.
For the compound `CCNC(=O)[C@H]1O[C@@H](n2cnc3c(N)nc(NCCc4ccc(CCC(=O)O)cc4)nc32)[C@H](O)[C@@H]1O` [CGS21680], the “angiogenic response in the CAM (vessel density at edge of disk)” value (“angiogenic response in the CAM” below) in assay [1] is “No angiogenic response”.
Turning to `CNC(=O)[C@H]1O[C@@H](n2cnc3c(NCc4cccc(I)c4)ncnc32)[C@H](O)[C@@H]1O` [m-MECA, N^6-iodobenzyl-5′-N-methyl-carboxamidoadenosine], the “angiogenic response in the CAM” value in assay [1] was “positive angiogenic response”.
Regarding `CCCn1c(=O)c2[nH]c(-c3ccc(OCC(=O)NCCN)cc3)nc2n(CCC)c1=O` [XAC, xanthine amine congener], the “effect on baseline angiogenesis in the CAM” value in assay [1] (nonselective antagonist alone, filter paper disk, four eggs) is on record as “did not inhibit baseline angiogenesis”.
As for `CCOC(=O)C1=C(C)NC(c2ccccc2)=C(C(=O)OCc2ccccc2)C1C#Cc1ccccc1` (centres unmarked) [MRS1191], the “selectivity for the human A3 over the A1 receptor” value on human A3 receptor is given as above 1300 fold.
Consider `CCNC(=O)[C@H]1O[C@@H](n2cnc3c(N)ncnc32)[C@H](O)[C@@H]1O` [NECA], for which the “angiogenic response in the CAM” value in assay [1] is given as “positive angiogenic response”.
Consider `Nc1ncnc2c1ncn2[C@@H]1O[C@H](CO)[C@@H](O)[C@H]1O` [Adenosine], for which, in assay [2], the “angiogenesis in the windowed CAM model (vascular density index)” value is on record as “stimulated angiogenesis”.
On to `OC[C@H]1O[C@@H](n2cnc3c(NC4CCCC4)ncnc32)[C@H](O)[C@@H]1O` [CPA, Cyclopentyladenosine], for which the “stimulation of angiogenesis in the CAM at low dose” value in assay [1] (20 nM CPA alone) is “did not stimulate angiogenesis”. Besides, the “angiogenic response in the CAM” value in assay [1] is given as “positive angiogenic response”.
Turning to `CC(C)N(C)c1nc2c(N[C@@H]3CC4CC3CC4O)ncnc2n1C` (some centres unmarked) [WRC-0571], in assay [1] (C17 plus WRC-0571), the “block of C17-stimulated angiogenesis in the CAM” value is “blocked”. Also, in assay [1] (CPA 100 nM with 1 μM WRC-0571), the “block of angiogenic effect of CPA in the CAM” value was “completely blocked”. Moreover, the “block of the effects of PD on angiogenesis in the CAM” value in assay [1] (PD plus WRC-0571) is listed as “completely blocked”. Moreover, the “block of the effects of endogenous adenosine in the CAM” value in assay [1] (in vivo) is “blocked the effects of endogenous adenosine”.
